This passage reports IC50 results from patent EP3345917A1, “ANTIPROTOZOAL COMPOUNDS” (Bacoba AG, priority 2017, dated 2018).

Each structure is given as a SMILES string. Non-standard residues stand in square brackets, D forms with d. Residues, ends and D or L forms follow the SMILES beside them. *: point of attachment. Hexenoyl(2E,4S-Me) = CC[C@H](C)/C=C/C(=O)*; Leu(3R-OH) = CC(C)[C@@H](O)[C@H](N)C(=O)O; NH((S)CH(Me)CH2NMe2) = C[C@@H](CN(C)C)N*; Gly(octyl) = CCCCCCCC[C@H](N)C(=O)O; X3 = O=C(c1coc(-c2ccccc2)n1)*; Hexanoyl = CCCCCC(=O)*; Aib = CC(C)(N)C(=O)O; βAla = NCCC(=O)O

Series [1] deals with Trypanosoma cruzi trypomastigote forms (Tulahuen strain). The series can be described thus: Intracellular Trypanosoma cruzi assay in L6-cells, beta-galactosidase/CPRG readout. The class given is cell-based. The conditions noted are these: In vitro inhibition, read-out: T.cruzi. The method in brief:
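L6 rat myoblasts infected with Tulahuen C2C4 LacZ T. cruzi; after incubation, CPRG/Nonidet substrate added and colour developed 2–6 h. Absorbance at 540 nm; IC50 calculated; triplicate tests.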

A further series relates to Plasmodium falciparum. The series can be described thus: 3H-hypoxanthine incorporation assay against Plasmodium falciparum. The class given is cell-based. The conditions noted are these: In vitro inhibition, read-out: P.falc NF5. On the procedure: (§1) Tests were done in triplicate.
IC50 values were calculated by linear interpolation.

Series [2] relates to intracellular Leishmania donovani (L.don. InMac). Briefly: Intracellular Leishmania donovani assay (L.don. InMac). The class given is cell-based. The following applies: In vitro inhibition.
From the text: as §1

Series [3] deals with Trypanosoma brucei rhodesiense (STIB 900 strain). Briefly: Alamar Blue assay against Trypanosoma brucei rhodesiense grown in axenic medium. The class given is cell-based. The conditions noted are these: In vitro inhibition, read-out: T.b.rhod. The method in brief: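 T. b. rhodesiense STIB 900 cultured in axenic medium and exposed to samples in an Alamar Blue viability assay, run in triplicate. IC50 calculated from the readout; melarsoprol served as reference drug.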
(Alamar Blue is a resazurin reagent that responds to reducing activity.)

Series [4] is described as follows: Cytotoxicity assay on L6-cells (Alamar Blue). The conditions noted are these: rat, Cytotox L6, Cytotoxicity against rat myoblast cells (L6).
Series [5] relates to Axenically grown Leishmania donovani amastigotes (strain MHOM/ET/67/L82). Briefly: Axenic Leishmania donovani amastigote resazurin assay. The following applies: In vitro inhibition, read-out: L.don. ax. The class given is cell-based. The method in brief: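 Strain MHOM/ET/67/L82 amastigotes grown axenically and tested in triplicate by resazurin assay. Plates developed 2-4 hours, fluorescence read at 536 nm excitation/588 nm emission and expressed as percentage of negative control.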

In the case of `CCCCCCCC[C@H](NC(=O)/C=C/[C@@H](C)CC)C(=O)N[C@H](C(=O)NC(C)(C)C(=O)N[C@@H](CC(C)C)C(=O)N[C@@H](CC(C)C)C(=O)NC(C)(C)C(=O)NC(C)(C)C(=O)NCCC(=O)N[C@@H](C)CN(C)C)[C@H](O)C(C)C` [Compound 5586, (2S)-N-[(1S,2R)-1-[(1-{[(1S)-1-{[(1S)-1-{[1-({1-[(2-{[(2S)-1-(dimethylamino)propan-2-yl]carbamoyl}ethyl)carbamoyl]-1-methylethyl}carbamoyl)-1-methylethyl]carbamoyl}-3-methylbutyl]carbamoyl}-3-methylbutyl]carbamoyl}-1-methylethyl)carbamoyl]-2-hydroxy-3-methylbutyl]-2-[(2E,4S)-4-methylhex-2-enamido]decanamide] ({Hexenoyl(2E,4S-Me)}-[Gly(octyl)][Leu(3R-OH)][Aib]LL[Aib][Aib][βAla]-{NH((S)CH(Me)CH2NMe2)}), the IC50 in series [1] is 108 nM; in the series on Plasmodium falciparum it was 18.8 nM; in series [2], 104 nM; in series [3] it was 6.6 nM; in series [5] it was 4.7 nM. In series [4], this compound yielded an IC50 at 70 h of 1150 nM.
For the compound `CCCCCCCC[C@H](NC(=O)[C@@H]1CCCN1C(=O)CCCCC)C(=O)N[C@@H](CC(C)C)C(=O)NC(C)(C)C(=O)N[C@@H](CC(C)C)C(=O)N[C@@H](CC(C)C)C(=O)NC(C)(C)C(=O)NC(C)(C)C(=O)NCCC(=O)N[C@@H](C)CN(C)C` [Compound 5632, (2S)-N-[(1S)-1-[(1-{[(1S)-1-{[(1S)-1-{[1-({1-[(2-{[(2S)-1-(dimethylamino)propan-2-yl]carbamoyl}ethyl)carbamoyl]-1-methylethyl}carbamoyl)-1-methylethyl]carbamoyl}-3-methylbutyl]carbamoyl}-3-methylbutyl]carbamoyl}-1-methylethyl)carbamoyl]-3-methylbutyl]-2-{[(2S)-1-hexanoylpyrrolidin-2-yl]formamido}decanamide] (Hexanoyl-P[Gly(octyl)]L[Aib]LL[Aib][Aib][βAla]-{NH((S)CH(Me)CH2NMe2)}), the IC50 in series [1] turned out to be 10.2 nM; in the series on Plasmodium falciparum it was 0.1 nM; in series [2] it was 52.1 nM; in series [3], 0.4 nM; in series [5] it was 1.3 nM. In addition, in series [4], the IC50 at 70 h is 162 nM.
With `CCCCCCCC[C@H](NC(=O)c1coc(-c2ccccc2)n1)C(=O)N[C@@H](CC(C)C)C(=O)NC(C)(C)C(=O)N[C@@H](CC(C)C)C(=O)N[C@@H](CC(C)C)C(=O)NC(C)(C)C(=O)NC(C)(C)C(=O)NCCC(=O)N[C@@H](C)CN(C)C` [Compound 5943, (2S)-N-[(1S)-1-[(1-{[(1S)-1-{[(1S)-1-{[1-({1-[(2-{[(2S)-1-(dimethylamino)propan-2-yl]carbamoyl}ethyl)carbamoyl]-1-methylethyl}carbamoyl)-1-methylethyl]carbamoyl}-3-methylbutyl]carbamoyl}-3-methylbutyl]carbamoyl}-1-methylethyl)carbamoyl]-3-methylbutyl]-2-[(2-phenyl-1,3-oxazol-4-yl)formamido]decanamide] (X3-[Gly(octyl)]L[Aib]LL[Aib][Aib][βAla]-{NH((S)CH(Me)CH2NMe2)}), the IC50 in series [1] was 156 nM; in the series on Plasmodium falciparum it was 15.3 nM; in series [2], < 36.1 nM; in series [3], 0.5 nM; in series [5], 18700 nM. Moreover, the IC50 at 70 h in series [4] was 552 nM.
